The record followed here is US8598202B2, “Aryl-hydroxyethylamino-pyrimidines and triazines as modulators of fatty acid amide hydrolase” (Janssen Pharmaceutica NV, priority 2008, dated 2013).

The target in one assay is T1, FAAH (Homo sapiens, UniProt O00519).
T1 sequence (O00519 1-579): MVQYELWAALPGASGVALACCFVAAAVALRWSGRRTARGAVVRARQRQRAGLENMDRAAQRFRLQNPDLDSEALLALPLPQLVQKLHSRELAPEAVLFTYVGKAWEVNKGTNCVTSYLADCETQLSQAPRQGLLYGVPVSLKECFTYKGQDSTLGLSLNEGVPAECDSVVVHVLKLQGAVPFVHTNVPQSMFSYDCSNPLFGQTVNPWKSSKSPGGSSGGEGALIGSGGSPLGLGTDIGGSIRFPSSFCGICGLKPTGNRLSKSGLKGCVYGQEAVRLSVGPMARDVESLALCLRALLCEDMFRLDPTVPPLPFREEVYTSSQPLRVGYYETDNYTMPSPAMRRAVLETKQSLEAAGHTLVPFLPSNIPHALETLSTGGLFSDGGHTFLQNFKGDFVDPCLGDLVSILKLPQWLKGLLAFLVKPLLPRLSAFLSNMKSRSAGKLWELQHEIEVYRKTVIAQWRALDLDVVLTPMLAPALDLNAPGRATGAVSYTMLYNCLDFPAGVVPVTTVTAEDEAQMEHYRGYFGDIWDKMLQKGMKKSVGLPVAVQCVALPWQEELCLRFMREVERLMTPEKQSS
The experiment in a line: Assay Method 1: FAAH assay, 3H-anandamide hydrolysis in homogenate of T84 cells or SK-N-MC cells transfected with human FAAH.

The next assay concerns the target T2, Rat FAAH-1 (Rattus norvegicus, UniProt P97612).
T2 sequence (P97612 1-579): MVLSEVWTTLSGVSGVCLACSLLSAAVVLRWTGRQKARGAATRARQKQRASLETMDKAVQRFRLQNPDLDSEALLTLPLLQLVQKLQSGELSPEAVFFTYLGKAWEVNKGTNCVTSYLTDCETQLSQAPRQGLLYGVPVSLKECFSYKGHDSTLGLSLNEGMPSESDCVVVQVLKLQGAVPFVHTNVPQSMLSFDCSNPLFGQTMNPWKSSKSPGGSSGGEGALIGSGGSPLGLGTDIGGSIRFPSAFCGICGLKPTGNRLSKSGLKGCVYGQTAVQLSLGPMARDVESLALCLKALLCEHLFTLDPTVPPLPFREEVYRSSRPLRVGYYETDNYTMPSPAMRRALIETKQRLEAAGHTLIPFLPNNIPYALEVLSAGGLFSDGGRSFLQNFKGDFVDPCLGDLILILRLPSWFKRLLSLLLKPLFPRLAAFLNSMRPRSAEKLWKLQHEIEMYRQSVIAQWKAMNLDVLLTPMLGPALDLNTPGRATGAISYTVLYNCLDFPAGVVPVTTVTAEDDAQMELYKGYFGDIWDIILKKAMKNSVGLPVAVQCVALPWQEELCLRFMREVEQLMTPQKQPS
The experiment in a line: Assay Method 2: rat FAAH-1 assay, 3H-anandamide hydrolysis in homogenate of SK-N-MC cells transfected with rat FAAH.

Each structure is given as a SMILES string. Where a name gives a salt, the structure may show the parent alone. Read-outs that look alike come from different tables or passages of the source.

Consider `OC(CNc1cc(-c2cccs2)ncn1)c1ccccc1` (stereo not shown) [CE5, 1-Phenyl-2-(6-thiophen-2-yl-pyrimidin-4-ylamino)-ethanol, reference compound], for which the IC50 was > 10000 nM at FAAH (read-out: Assay 1 IC50, Table 2, Comparative Examples, human FAAH) and > 10000 nM on Rat FAAH-1 (read-out: Assay 2 IC50, Table 2, Comparative Examples, rat FAAH-1).

As to `O[C@@H](CNc1cc(-c2cc(F)c(F)c(F)c2)ncn1)c1ccccc1` [Example 54, (1R)-1-Phenyl-2-{[6-(3,4,5-trifluorophenyl)pyrimidin-4-yl]amino}ethanol trifluoroacetic acid salt], the figures for the IC50 at FAAH and on Rat FAAH-1 were 277 nM and 443 nM, respectively.

Take `O[C@@H](CNc1ncnc(-c2ccc(C(F)(F)F)c(Cl)c2)n1)c1ccccc1` [Example 104, (1R)-2-({4-[3-Chloro-4-(trifluoromethyl)phenyl]-1,3,5-triazin-2-yl}amino)-1-phenylethanol trifluoroacetic acid salt]: the values for the IC50 at FAAH and at Rat FAAH-1 were 130 nM and 58 nM, respectively.

Turning to `O[C@@H](CNc1cc(-c2ccc(F)c(F)c2)ncn1)c1ccccc1` [Example 59, (1R)-2-{[6-(3,4-Difluorophenyl)pyrimidin-4-yl]amino}-1-phenylethanol trifluoroacetic acid salt], the IC50 was 307 nM against FAAH and 1000 nM at Rat FAAH-1.

Regarding `CCCOc1ccc(-c2cc(NC[C@H](O)c3ccccc3)ncn2)cc1F` [Example 35, (1R)-2-{[6-(3-Fluoro-4-propoxyphenyl)pyrimidin-4-yl]amino}-1-Phenylethanol trifluoroacetic acid salt], the values for the IC50 at FAAH and against Rat FAAH-1 were 43 nM and 180 nM, respectively.

`O[C@@H](CNc1cc(-c2ccc(OCC3CC3)cc2)ncn1)c1ccccc1` [Example 32, (1R)-2-({6-[4-(Cyclopropylmethoxy)phenyl]pyrimidin-4-yl}amino)-1-phenylethanol trifluoroacetic acid salt]: the IC50 against FAAH is 92 nM; against Rat FAAH-1 it was 1000 nM.

For `O=S(=O)(c1ccc(-c2cc(NC[C@H](O)c3ccccc3)ncn2)cc1)N1CCCCC1` [Example 79, (1R)-1-Phenyl-2-({6-[4-(piperidin-1-ylsulfonyl)phenyl]pyrimidin-4-yl}amino)ethanol], the IC50 is 542 nM against FAAH and 530 nM on Rat FAAH-1.

For the compound `CSc1ccc(-c2cc(NCC(O)c3ccccc3)ncn2)cc1` (stereo not shown) [Example 225, 2-[6-(4-Methylsulfanyl-phenyl)-Pyrimidin-4-ylamino]-1-phenyl-ethanol], the IC50 came out at 11 nM against FAAH and 128 nM on Rat FAAH-1.

Consider `OC(CNc1cc(-c2ccc(OC(F)(F)F)cc2)ncn1)c1cc(Cl)cc(Cl)c1` (stereo not shown) [Example 126, 1-(3,5-Dichlorophenyl)-2-[(6-{4-[(trifluoromethyl)oxy]phenyl}-pyrimidin-4-yl)amino]ethanol], for which the values for the concentration for half-maximal inhibition (IC50) at FAAH and on Rat FAAH-1 were 1200 nM and 1000 nM, respectively.

Regarding `OC(CNc1cc(-c2ccc(OC(F)(F)F)cc2)ncn1)c1ccc(F)cc1` (stereo not shown) [Example 113, 1-(4-Fluorophenyl)-2-[(6-{4-[(trifluoromethyl)oxy]phenyl}pyrimidin-4-yl)amino]ethanol], the IC50 against FAAH came to 18 nM; on Rat FAAH-1, 41 nM.

With `CC(=O)c1ccc(-c2cc(NCC(O)c3ccccc3)ncn2)cc1` (stereo not shown) [Example 228, 1-(4-{6-[(2-Hydroxy-2-phenylethyl)amino]pyrimidin-4-yl}phenyl)ethanone], the IC50 against FAAH is 26 nM; on Rat FAAH-1, 66 nM.

Regarding `OC(CNc1cc(-c2ccc(C(F)(F)F)c(Cl)c2)ncn1)c1ccc(-n2ccnc2)cc1` (stereo not shown) [Example 200, 2-({6-[3-Chloro-4-(trifluoromethyl)phenyl]pyrimidin-4-yl}amino)-1-[4-(1H-imidazol-1-yl)phenyl]ethanol], the figures for the IC50 on FAAH and at Rat FAAH-1 were 165 nM and 1600 nM, respectively.

Turning to `COc1cccc(C(O)CNc2cc(-c3ccc(OC(F)(F)F)cc3)ncn2)c1` (stereo not shown) [Example 117], the IC50 is 32 nM at FAAH and 22 nM at Rat FAAH-1.

For `Cc1nc(NC[C@H](O)c2ccccc2)cc(-c2ccc(C(F)(F)F)c(Cl)c2)n1` [Example 73, (1R)-2-({6-[3-Chloro-4-(trifluoromethyl)phenyl]-2-methylpyrimidin-4-yl}amino)-1-phenylethanol], the values for the IC50 against FAAH and against Rat FAAH-1 were 20 nM and 40 nM, respectively.

As usually defined, the IC50 is the concentration that gives 50% inhibition.
